Results on two molecules are retold here after article PMC6968488, “In vitro and in vivo evaluation of didymin cyclodextrin inclusion complexes: characterization and chemosensitization activity” (Drug Delivery, 2019).

In brackets after ≈: the same amount, converted by molar mass. Like-named read-outs stand apart in the source and are kept apart here.

The subject of one data set is MCF-7/ADR tumor. Kind of data set: In vivo antitumor efficacy in mice bearing resistant tumors. Further details: species or system BALB/c nude mice. The following applies: DOX 5 mg/kg/3 days i.p.; Didymin/HP-β-CD 20 mg/kg/day i.g.; 14 days. The method, then:
To further investigate the chemosensitivity of […] inclusion complex, female BALB/c nude mice (5-6 weeks old, Shanghai Laboratory Animal Center, China) were injected subcutaneously with MCF-7/ADR cells (10^7 cells/per mouse). […] (1) Control group, 0.9% saline (0.2 mL/kg/day, i.p.); (2) DOX group, DOX (5 mg/kg/3 days, i.p.); (3) DOX + […] group, DOX (5 mg/kg/3 days, […] was given by oral gavage (i.g.) while DOX was intraperitoneal injected (i.p.). DOX injection was performed 30 min after the […] by gavage. The mouse weight and tumor volume were measured every day. The tumor volume was obtained using the formula (Yao et al., [2019]). On day 14, the mice were sacrificed, and tumor tissues were collected, fixed and sliced for pathological examination (H&E staining, Ki67 immunohistochemical staining, and TUNEL assay).

For data set [1], the system named is MCF-7/ADR cells. In words: MTT cytotoxicity / chemosensitivity assay, resistant tumor cells. In kind it is cell-based. How it is done: (§1) The cytotoxicity of didymin on various cell lines was examined by MTT assay as previously reported (Yao et al., [2019]). The didymin solution was prepared by dissolving in DMSO at different concentrations and diluted with the fresh medium right before the treatment. The didymin inclusion complex was dispersed in the sterilized water and then diluted with the fresh medium before treatment. Experiments involving healthy cells (HUVEC, H9C2, and PC12) by culturing 100 μL cell suspension (5 × 10^4 cell/mL) in 96 well plates. After 24 h incubation, the didymin or didymin inclusion complexes contained medium was used to replace the overnight medium and cultured for 48 h, respectively. After that, the MTT solution at the concentration of 5 mg/mL was added to each well. After 4 h incubation, the medium was removed, and the MTT formazan was dissolved by DMSO. Then the DMSO solution is measured using a microplate reader with the absorbance wavelength at 570 nm. The untreated cells were used as control. The cell viability (%) was calculated as follows, cell viability (%) = Asample/Acontrol ×100.
(§2) The MCF-7 and MCF-7/ADR cells cytotoxicity of the combination of didymin and doxorubicin were evaluated by MTT assay, as mentioned above.

The target of the next data set is T1, P-gp transporter (Homo sapiens, UniProt P08183).
T1 construct: endogenous in cells; host or cells: MCF-7/ADR cells
Kind of data set: Calcein-AM extrusion assay. It is filed as cell-based. The following applies: MCF-7/ADR, 30 min pre-incubation then calcein-AM 30 min. How it is done:
The effect of didymin and its inclusion complex on the efflux function of P-gp transporter was studied using calcein-AM extrusion assay as reported (Dai et al., [2016]). Briefly, MCF-7/ADR cells were seeded in a 6-well plate at 2 × 10^5 cell/mL overnight before the experiment. The cancer cell was incubated with verapamil or didymin formulations for 30 min and then treated with calcein-AM for another 30 min. Then, the treated cells were washed with ice-cold PBS three times and recorded under fluorescence microscopy. In an independent study, after treatment, the cells were washed, trypsinized, and collected by centrifuge. The collected cells were then washed with PBS and analyzed by flow cytometry (BD Bioscience, Franklin Lakes, NJ, USA). The data was collected with 1 × 10^5 events counter per samples

Data set [2] is described as follows: MTT cytotoxicity assay on healthy cells. The following applies: all tested concentrations 10 μM∼200 μM, read-out: cell viability. In kind it is cell-based. The method, then:
as §1
(In general: Formazan colour is commonly taken as a measure of viable cells.)

The next data set concerns MCF-7 cells. In words: MTT cytotoxicity / chemosensitivity assay, sensitive tumor cells. In kind it is cell-based. The following applies: MCF-7, without DOX, tested concentrations. The method, then: as §1, §2
Another data set is described as follows: Acute toxicity study. It is filed as in vivo, BALB/c mice. The following applies: mice, single oral dose 250 mg/kg. The method, then: An acute toxicity test was conducted as previously reported (Kandhare et al., [2016]). In brief, the BALB/c mice weighing about 18–22 g were administrated of didymin at a single dose of 250 mg/kg using oral gastric gavages. […] On 15th day animals were sacrificed, and the major organs were collected, fixed, and sliced for H&E staining.

The nature of data set [3]: Pharmacokinetic study after oral administration. It is filed as in vivo. The following applies: male, rat, plasma, SD rats, 25 mg/kg. How it is done:
All animal experiments were carried out under the Guide for Care and Use of Laboratory Animals and approved by the approval of the Ethics Committee of Wenzhou Medical University. Male SD rats ([…], Shanghai Laboratory Animal Center, China) weighing 220–250 g (n = 6 per group) were studied in the pharmacokinetic study. Free didymin and two types of didymin inclusion complexes (25 mg/kg, respectively) were orally administered with sterilized water. Then blood samples were collected from the orbit venous plexus at predetermined time intervals. The blood samples were then centrifuged at 15000 r/min for 10 min, then dried at 40 °C under nitrogen flow to solid-phase extraction. Methanol was added to dissolve the residue. Then the concentration of didymin in plasma was determined by HPLC methods and calculated the pharmacokinetic parameters.

Data set [4] is described as follows: Solubility study of didymin in different media (HPLC). It is filed as physicochemical. The following applies: for solubility at 72 h: thermodynamic from solid, room temperature, 72 h stirring. How it is done:
Add excess didymin into a different medium (water, ethanol, methanol, 1% β-CD, and 1% HP-β-CD), and keep stirring at room temperature for 72 h. After that, 1.5 mL of the suspension was taken for centrifugation to take the supernatant. After filtering with a […] filter membrane (Shanghai Boguang Biotechnology Co., Ltd, Shanghai, China), the concentration of each solution was measured by the HPLC method.
An analytical HPLC method was developed to determine the concentration of didymin. The chromatographic conditions are: Agilent HC-C18 column (4.6 mm × 250 mm, 5 μm) (Agilent Technologies, Inc., Santa Clara, CA, USA), the mobile phase was phosphate buffer (pH 6.8)–methanol (45:55), the detection wavelength was 283 nm, the column temperature was 25 °C, and the flow rate was 1.0 mL/min, and. The samples were filtered (0.45 μm) and deaerated before use.

In data set [5] the test system is MCF-7/ADR cells. Kind of data set: Intracellular uptake study of DOX. It is filed as cell-based. The following applies: DOX 10 μM, 4 h, fluorescence microscopy and quantitative analysis. The method, then: The effect of didymin on the intracellular uptake of the P-gp substrate was conducted as previously reported (Dai et al., [2016]; Yao et al., [2019]). Briefly, MCF-7/ADR cells were seeded in a 6-well plate at 4 × 10^5 cell/mL overnight before the experiment. Then the cancer cells were incubated with DOX (10 μM) at a concentration with or without didymin formulations for 4 h. Then, the treated cells were washed with ice-cold PBS three times and recorded under fluorescence microscopy (Nikon, Tokyo, Japan). In an independent study, after treatment, the cells were washed with ice-cold PBS and then lysed. Then acetonitrile was added into the cell lysate to extract the didymin via protein precipitation (PP)/extraction method. The didymin concentration in the supernatant was determined by the previously validated HPLC method.

T1 sequence (P08183 whole entry): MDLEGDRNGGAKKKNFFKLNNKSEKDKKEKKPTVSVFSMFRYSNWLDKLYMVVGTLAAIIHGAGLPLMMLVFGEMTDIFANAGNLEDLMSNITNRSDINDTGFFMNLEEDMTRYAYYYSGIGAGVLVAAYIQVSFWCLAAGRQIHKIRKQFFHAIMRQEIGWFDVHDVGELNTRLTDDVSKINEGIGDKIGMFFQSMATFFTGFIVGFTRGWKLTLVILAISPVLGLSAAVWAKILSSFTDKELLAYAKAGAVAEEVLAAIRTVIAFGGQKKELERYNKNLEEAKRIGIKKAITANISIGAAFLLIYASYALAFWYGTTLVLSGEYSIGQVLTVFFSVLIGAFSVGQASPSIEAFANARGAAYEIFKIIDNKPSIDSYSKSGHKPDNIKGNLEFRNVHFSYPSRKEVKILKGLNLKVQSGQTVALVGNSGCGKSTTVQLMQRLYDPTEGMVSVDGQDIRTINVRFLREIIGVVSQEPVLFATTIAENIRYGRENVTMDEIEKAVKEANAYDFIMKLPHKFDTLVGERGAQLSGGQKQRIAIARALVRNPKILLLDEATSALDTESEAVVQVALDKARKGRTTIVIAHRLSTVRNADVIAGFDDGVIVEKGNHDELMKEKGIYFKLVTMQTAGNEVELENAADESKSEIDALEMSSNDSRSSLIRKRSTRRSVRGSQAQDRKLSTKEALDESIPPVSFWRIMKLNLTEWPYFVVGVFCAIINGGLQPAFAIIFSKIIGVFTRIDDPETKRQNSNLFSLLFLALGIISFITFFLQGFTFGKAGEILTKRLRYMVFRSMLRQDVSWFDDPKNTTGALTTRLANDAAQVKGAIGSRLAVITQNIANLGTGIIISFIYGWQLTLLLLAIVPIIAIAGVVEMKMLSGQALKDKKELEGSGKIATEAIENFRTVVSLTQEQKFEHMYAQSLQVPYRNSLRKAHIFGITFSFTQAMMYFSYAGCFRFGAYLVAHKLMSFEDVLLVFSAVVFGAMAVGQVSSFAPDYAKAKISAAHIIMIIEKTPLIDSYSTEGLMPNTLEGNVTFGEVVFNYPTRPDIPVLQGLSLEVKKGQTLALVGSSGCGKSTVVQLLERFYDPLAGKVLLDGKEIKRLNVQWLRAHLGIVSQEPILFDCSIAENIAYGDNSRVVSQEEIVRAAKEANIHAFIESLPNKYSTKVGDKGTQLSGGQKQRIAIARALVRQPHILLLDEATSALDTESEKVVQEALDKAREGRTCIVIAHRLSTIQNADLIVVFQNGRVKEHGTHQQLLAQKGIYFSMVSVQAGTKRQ

What is called IC50 is the concentration that inhibits the measured activity by half. Take `COc1cccc2c1C(=O)c1c(O)c3c(c(O)c1C2=O)C[C@@](O)(C(=O)CO)C[C@@H]3O[C@H]1C[C@H](N)[C@H](O)[C@H](C)O1` [DOX, doxorubicin, reference compound]: the tumor growth inhibition in the data set with MCF-7/ADR tumor was 34%. In addition, in the data set with MCF-7/ADR cells [1] (Homo sapiens, NCI/ADR-RES, free DOX), the IC50 was above 20 µM.

Broadly, the viability is the share of living cells, or the viability signal relative to a control. The term Cmax denotes the maximum level reached in the sampled fluid or tissue. By Tmax is commonly meant the time at which the peak concentration occurs. A word on the half-life: it is the time in which the quantity being followed falls by half. A low value points to rapid decline. By solubility is commonly meant how much of the substance goes into solution per volume. For the molecule `COc1ccc(C2CC(=O)c3c(O)cc(OC4OC(COC5OC(C)C(O)C(O)C5O)C(O)C(O)C4O)cc3O2)cc1` (stereo not drawn) [didymin, isosakuranetin-7-beta-rutinoside], the “P-gp efflux function (intracellular calcein fluorescence)” value at P-gp transporter is given as “significantly inhibit the function of P-gp transporter”. Besides, the viability at 48 h is above 90% in data set [2] (human, HUVEC cells); above 90% in [2] (rat, H9C2 cells, H9C2, 48 h); above 90% in data set [2] (rat, PC12 cells, PC12, 48 h). The cytotoxicity alone entry in the data set with MCF-7 cells is given as “did not exert toxicity on cancer cells”; in the data set with MCF-7/ADR cells [1] (without DOX, tested concentrations), “did not exert toxicity on cancer cells”. Moreover, the “abnormal behaviors and weight change in the observation period” value in the data set “Acute toxicity study” (14 days) was “did not show any abnormal behaviors and weights change”. Further, in “Acute toxicity study” (after 14 days), the “H&E staining of major organs” value is “no signs of any toxicity”. This molecule had a Cmax in data set [3] of 2770 ng/mL. The Tmax in data set [3] came out at 11.4 ± 3 min. Further, the half-life in data set [3] was 105 ± 9.6 min. For the same molecule, in data set [3] (read-out: AUC0–12 h), the AUC(0-t) was found to be 5910 ng·h/mL. Also, the solubility at 72 h in [4] (aqueous with cosolvent or surfactant or cyclodextrin, 1% HP-β-CD solution, read-out: solubility in 1% HP-β-CD solution) was determined as 735 ± 370 µg/mL (≈ 1240 µM); in data set [4] (organic solvent or mixture, ethanol, read-out: solubility in ethanol), 1240 ± 720 µg/mL (≈ 2090 µM); in data set [4] (organic solvent or mixture, methanol, read-out: solubility in methanol) it was 11200 ± 1190 µg/mL (≈ 18900 µM); in [4] (water, read-out: solubility in water), 107 ± 120 µg/mL (≈ 180 µM). Besides, the entries for the “increase of aqueous solubility compared to free didymin” value in data set [4] (presence of HP-β-CD) and in data set [4] (presence of β-CD) were 6.9 times and 4.7 times, respectively. For the same molecule, in the data set on MCF-7/ADR cells [5], the DOX intracellular accumulation entry is “increase the DOX intracellular accumulation”.
